# Data reported in patent publication US10183944B2 (Asana Biosciences, LLC, priority 2011, dated 2019).
# Test system: Collagen Induced Arthritis (CIA) in female Lewis rats
# Experiment: In vivo chronic study: Collagen Induced Arthritis (CIA)
# Parameters: species or system rat
# Details: 0.5 mg/Kg
# Description: Collagen Induced Arthritis (CIA) is a well characterized model of human rheumatoid arthritis (RA) that can be induced in susceptible animals following immunization with type II collagen (cII) in Freund's adjuvant. […] Pathophysiology of CIA consists of T cell component, as evidenced by increased infiltration of T-cells in joint synovium and also, by attenuation of CIA in T-cell deficient mice. CIA development involves B cell component too, as is evidenced by circulating cII antibody in disease animals and also, failure to develop the disease in xid mice/B cell deficient mice/CXCR5 null mice. […] See, Pine, “Inflammation and bone erosion are suppressed in models of rheumatoid arthritis following treatment with a novel Syk inhibitor”, Clin. Immunol., 2007, 124(3):244-57; Xiong cha, “Suppression of the onset and progression of collagen-induced arthritis in rats by QFGJS, a preparation from an anti-arthritic Chinese herbal formula”, J. Ethnopharmacology (2007) 110:39-48; and Stolina, “The evolving systemic and local biomarker milieu at different stages of disease progression in rat collagen induced arthritis”, Biomarkers (2008) 13(7-8):692-712, which are herein incorporated by reference.
# Female Lewis rats (8 per group, 6-8 weeks old) were immunized on day 1 with type II collagen (Immunization grade Bovine type II; Chondrex; Cat #20021) emulsified with Complete Freund's Adjuvant (Sigma; Cat# F5881) at a final concentration of 1.2 mg/mL). For the initial immunization, the animals were injected at the base of the tail with 300 μg of the cII (0.25 mL/rat). A booster injection of the same type II collagen emulsified with Incomplete Freund's Adjuvant (Sigma, Cat #F5506) (0.25 mL/rat) was given to the animals on day 8 at the base of the tail (100 μg). The final cII concentration in the booster was […].
# Animals with an arthritic score of ≥1 were grouped and dosing with test compound (30 mg/kg bid) or methotrexate (0.5 mg/kg) started between about day 12 to day 14, with daily dosing of their respective compounds continuing for 10 days.
# Edema: Paw volumes are measured by Plethysmometry for the animals before induction of CIA (Basal readings) and on Day 1, 3, 6 and 9 of dosing period. Both hind paw volumes were measured and edema was calculated by subtracting from the basal mean.
# Arthritic score: Animals were scored for the symptoms of arthritis every day starting from Day of onset of disease till the end of the study. Both the hind paws were scored and the total scores were averaged and compared with control. The scoring pattern was as follows:
# The percent inhibition of Edema was calculated with respect to control by the formula: […]
# The percent inhibition of Arthritic score was calculated with respect to control by the formula: […]
# Means of different groups were compared with control using one way ANOVA followed by Dunnett's test. Significance is represented as follows.
structure (smiles),measurement,setting,value
"CN(Cc1cnc2nc(N)nc(N)c2n1)c1ccc(C(=O)N[C@@H](CCC(=O)O)C(=O)O)cc1 [Methotrexate, methotrexate, reference compound]",Percent inhibition of Edema (Day 9 of dosing),Day 9 of dosing,6
same,Percent inhibition of Arthritic score (Day 10 of dosing),Day 10 of dosing,15
